The assay concerns T1, AcAAT4.
T1 construct: pET32a-His fusion, expressed in E. coli BL21, Ni-NTA purified; tag cleavage not mentioned
As to the kind of experiment: GC-MS of SPME-collected (Z)-3-hexenyl acetate, varied (Z)-3-hexenol. In kind it is biochemical, Acacia confusa. Particulars: acetyl-CoA co-substrate; 50 mM Tris-HCl pH 7.4 in methods (text: optimal conditions pH 7.5-8); 30 °C.

Molecules are shown by their SMILES.

As a reminder, the Km is the concentration of substrate that gives half-maximal velocity.

Take `CC/C=C\CCO` [(Z)-3-hexenol]: the Michaelis-Menten constant (Km) was determined as 54.6 µM.
